{"source": "PubChem BioAssay (NCI)", "experiment_in_all_cases": "NCI anticancer screen, dose series, 48 h", "key": {"[1]": {"tested_on": "786-0 renal"}, "[2]": {"tested_on": "A498 renal"}, "[3]": {"tested_on": "A549 NSCLC"}, "[4]": {"tested_on": "ACHN renal"}, "[5]": {"tested_on": "CAKI-1 renal"}, "[6]": {"tested_on": "CCRF-CEM leukemia"}, "[7]": {"tested_on": "DU-145 prostate"}, "[8]": {"tested_on": "EKVX NSCLC"}, "[9]": {"tested_on": "HCC-2998 colon"}, "[10]": {"tested_on": "HCT-116 colon"}, "[11]": {"tested_on": "HCT-15 colon"}, "[12]": {"tested_on": "HL-60(TB) leukemia"}, "[13]": {"tested_on": "HOP-62 NSCLC"}, "[14]": {"tested_on": "HOP-92 NSCLC"}, "[15]": {"tested_on": "HS 578T breast"}, "[16]": {"tested_on": "IGROV1 ovarian"}, "[17]": {"tested_on": "K-562 leukemia"}, "[18]": {"tested_on": "KM12 colon"}, "[19]": {"tested_on": "LOX IMVI melanoma"}, "[20]": {"tested_on": "M14 melanoma"}, "[21]": {"tested_on": "MALME-3M melanoma"}, "[22]": {"tested_on": "MDA-MB-231 breast"}, "[23]": {"tested_on": "MDA-MB-435"}, "[24]": {"tested_on": "MDA-MB-468 breast"}, "[25]": {"tested_on": "MOLT-4 leukemia"}, "[26]": {"tested_on": "NCI-H226 lung"}, "[27]": {"tested_on": "NCI-H23 lung"}, "[28]": {"tested_on": "NCI-H460 lung"}, "[29]": {"tested_on": "NCI-H522 lung"}, "[30]": {"tested_on": "NCI/ADR-RES ovarian"}, "[31]": {"tested_on": "OVCAR-3 ovarian"}, "[32]": {"tested_on": "OVCAR-4 ovarian"}, "[33]": {"tested_on": "OVCAR-5 ovarian"}, "[34]": {"tested_on": "OVCAR-8 ovarian"}, "[35]": {"tested_on": "PC-3 prostate"}, "[36]": {"tested_on": "RPMI-8226 leukemia"}, "[37]": {"tested_on": "RXF 393 renal"}, "[38]": {"tested_on": "SF-268 CNS"}, "[39]": {"tested_on": "SF-295 CNS"}, "[40]": {"tested_on": "SF-539 CNS"}, "[41]": {"tested_on": "SK-MEL-2 melanoma"}, "[42]": {"tested_on": "SK-MEL-28 melanoma"}, "[43]": {"tested_on": "SK-MEL-5 melanoma"}, "[44]": {"tested_on": "SK-OV-3 ovarian"}, "[45]": {"tested_on": "SN12C renal"}, "[46]": {"tested_on": "SNB-19 CNS"}, "[47]": {"tested_on": "SR leukemia"}, "[48]": {"tested_on": "SW-620 colon"}, "[49]": {"tested_on": "TK-10 renal"}, "[50]": {"tested_on": "U251 CNS"}, "[51]": {"tested_on": "UACC-257 melanoma"}, "[52]": {"tested_on": "UACC-62 melanoma"}, "[53]": {"tested_on": "UO-31 renal"}}, "note": "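Assay format: 96-well plates, 48-hour exposure. GI50 is the concentration that inhibits growth by half. The concentration for full growth arrest is given as TGI.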"}
{"smiles": "CN(C)CCn1c2ccccc2c2nc3ccc([N+](=O)[O-])cc3nc21", "values": [{"measurement": "GI50", "setting": "[1]", "value": 1.31, "unit": "µM"}, {"measurement": "TGI", "setting": "[1]", "value": 6.55, "unit": "µM"}, {"measurement": "GI50", "setting": "[2]", "value": 1.74, "unit": "µM"}, {"measurement": "TGI", "setting": "[2]", "value": 4.56, "unit": "µM"}, {"measurement": "GI50", "setting": "[3]", "value": 0.438, "unit": "µM"}, {"measurement": "TGI", "setting": "[3]", "value": 1.83, "unit": "µM"}, {"measurement": "GI50", "setting": "[4]", "value": 0.322, "unit": "µM"}, {"measurement": "TGI", "setting": "[4]", "value": 1.1, "unit": "µM"}, {"measurement": "GI50", "setting": "[5]", "value": 0.368, "unit": "µM"}, {"measurement": "TGI", "setting": "[5]", "value": 2.71, "unit": "µM"}, {"measurement": "GI50", "setting": "[6]", "value": 0.667, "unit": "µM"}, {"measurement": "TGI", "setting": "[6]", "value": 4.37, "unit": "µM"}, {"measurement": "GI50", "setting": "[7]", "value": 1.71, "unit": "µM"}, {"measurement": "TGI", "setting": "[7]", "value": 9.91, "unit": "µM"}, {"measurement": "GI50", "setting": "[8]", "value": 1.6, "unit": "µM"}, {"measurement": "TGI", "setting": "[8]", "value": 5, "unit": "µM"}, {"measurement": "GI50", "setting": "[9]", "value": 1.47, "unit": "µM"}, {"measurement": "TGI", "setting": "[9]", "value": 3.72, "unit": "µM"}, {"measurement": "GI50", "setting": "[10]", "value": 0.752, "unit": "µM"}, {"measurement": "TGI", "setting": "[10]", "value": 5.94, "unit": "µM"}, {"measurement": "GI50", "setting": "[11]", "value": 0.725, "unit": "µM"}, {"measurement": "TGI", "setting": "[11]", "value": 4.06, "unit": "µM"}, {"measurement": "GI50", "setting": "[12]", "value": 0.256, "unit": "µM"}, {"measurement": "TGI", "setting": "[12]", "value": 0.698, "unit": "µM"}, {"measurement": "GI50", "setting": "[13]", "value": 1.08, "unit": "µM"}, {"measurement": "TGI", "setting": "[13]", "value": 4.76, "unit": "µM"}, {"measurement": "GI50", "setting": "[14]", "value": 0.197, "unit": "µM"}, {"measurement": "TGI", "setting": "[14]", "value": 2.29, "unit": "µM"}, {"measurement": "GI50", "setting": "[15]", "value": 2.16, "unit": "µM"}, {"measurement": "TGI", "setting": "[15]", "value": "> 100", "unit": "µM"}, {"measurement": "GI50", "setting": "[16]", "value": 1.07, "unit": "µM"}, {"measurement": "TGI", "setting": "[16]", "value": 9.46, "unit": "µM"}, {"measurement": "GI50", "setting": "[17]", "value": 0.931, "unit": "µM"}, {"measurement": "TGI", "setting": "[17]", "value": 11.3, "unit": "µM"}, {"measurement": "GI50", "setting": "[18]", "value": 1.53, "unit": "µM"}, {"measurement": "TGI", "setting": "[18]", "value": 9.15, "unit": "µM"}, {"measurement": "GI50", "setting": "[19]", "value": 0.541, "unit": "µM"}, {"measurement": "TGI", "setting": "[19]", "value": 1.95, "unit": "µM"}, {"measurement": "GI50", "setting": "[20]", "value": 1.71, "unit": "µM"}, {"measurement": "TGI", "setting": "[20]", "value": "> 100", "unit": "µM"}, {"measurement": "GI50", "setting": "[21]", "value": 0.709, "unit": "µM"}, {"measurement": "TGI", "setting": "[21]", "value": 3.41, "unit": "µM"}, {"measurement": "GI50", "setting": "[22]", "value": 1.87, "unit": "µM"}, {"measurement": "TGI", "setting": "[22]", "value": 5.7, "unit": "µM"}, {"measurement": "GI50", "setting": "[23]", "value": 2.3, "unit": "µM"}, {"measurement": "TGI", "setting": "[23]", "value": "> 100", "unit": "µM"}, {"measurement": "GI50", "setting": "[24]", "value": 0.514, "unit": "µM"}, {"measurement": "TGI", "setting": "[24]", "value": 2.27, "unit": "µM"}, {"measurement": "GI50", "setting": "[25]", "value": 0.41, "unit": "µM"}, {"measurement": "TGI", "setting": "[25]", "value": 2.9, "unit": "µM"}, {"measurement": "GI50", "setting": "[26]", "value": 1.27, "unit": "µM"}, {"measurement": "TGI", "setting": "[26]", "value": 3.26, "unit": "µM"}, {"measurement": "GI50", "setting": "[27]", "value": 1.2, "unit": "µM"}, {"measurement": "TGI", "setting": "[27]", "value": 3.64, "unit": "µM"}, {"measurement": "GI50", "setting": "[28]", "value": 0.395, "unit": "µM"}, {"measurement": "TGI", "setting": "[28]", "value": 2.19, "unit": "µM"}, {"measurement": "GI50", "setting": "[29]", "value": 0.988, "unit": "µM"}, {"measurement": "TGI", "setting": "[29]", "value": 4.22, "unit": "µM"}, {"measurement": "GI50", "setting": "[30]", "value": 1.28, "unit": "µM"}, {"measurement": "TGI", "setting": "[30]", "value": 11.9, "unit": "µM"}, {"measurement": "GI50", "setting": "[31]", "value": 2.01, "unit": "µM"}, {"measurement": "TGI", "setting": "[31]", "value": 7.34, "unit": "µM"}, {"measurement": "GI50", "setting": "[32]", "value": 2.76, "unit": "µM"}, {"measurement": "TGI", "setting": "[32]", "value": "> 100", "unit": "µM"}, {"measurement": "GI50", "setting": "[33]", "value": 2.31, "unit": "µM"}, {"measurement": "TGI", "setting": "[33]", "value": 6.51, "unit": "µM"}, {"measurement": "GI50", "setting": "[34]", "value": 0.907, "unit": "µM"}, {"measurement": "TGI", "setting": "[34]", "value": 5.51, "unit": "µM"}, {"measurement": "GI50", "setting": "[35]", "value": 1.14, "unit": "µM"}, {"measurement": "TGI", "setting": "[35]", "value": "> 100", "unit": "µM"}, {"measurement": "GI50", "setting": "[36]", "value": 1.23, "unit": "µM"}, {"measurement": "TGI", "setting": "[36]", "value": 4.3, "unit": "µM"}, {"measurement": "GI50", "setting": "[37]", "value": 1.83, "unit": "µM"}, {"measurement": "TGI", "setting": "[37]", "value": 5.83, "unit": "µM"}, {"measurement": "GI50", "setting": "[38]", "value": 1.75, "unit": "µM"}, {"measurement": "TGI", "setting": "[38]", "value": 13.2, "unit": "µM"}, {"measurement": "GI50", "setting": "[39]", "value": 0.477, "unit": "µM"}, {"measurement": "TGI", "setting": "[39]", "value": 3.09, "unit": "µM"}, {"measurement": "GI50", "setting": "[40]", "value": 0.645, "unit": "µM"}, {"measurement": "TGI", "setting": "[40]", "value": 3.85, "unit": "µM"}, {"measurement": "GI50", "setting": "[41]", "value": 3.27, "unit": "µM"}, {"measurement": "TGI", "setting": "[41]", "value": 7.64, "unit": "µM"}, {"measurement": "GI50", "setting": "[42]", "value": 2.54, "unit": "µM"}, {"measurement": "TGI", "setting": "[42]", "value": "> 100", "unit": "µM"}, {"measurement": "GI50", "setting": "[43]", "value": 0.666, "unit": "µM"}, {"measurement": "TGI", "setting": "[43]", "value": 2.05, "unit": "µM"}, {"measurement": "GI50", "setting": "[44]", "value": 2.49, "unit": "µM"}, {"measurement": "TGI", "setting": "[44]", "value": 7.5, "unit": "µM"}, {"measurement": "GI50", "setting": "[45]", "value": 0.813, "unit": "µM"}, {"measurement": "TGI", "setting": "[45]", "value": 4.62, "unit": "µM"}, {"measurement": "GI50", "setting": "[46]", "value": 2.32, "unit": "µM"}, {"measurement": "TGI", "setting": "[46]", "value": 10.4, "unit": "µM"}, {"measurement": "GI50", "setting": "[47]", "value": 0.322, "unit": "µM"}, {"measurement": "TGI", "setting": "[47]", "value": 1.69, "unit": "µM"}, {"measurement": "GI50", "setting": "[48]", "value": 0.691, "unit": "µM"}, {"measurement": "TGI", "setting": "[48]", "value": "> 100", "unit": "µM"}, {"measurement": "GI50", "setting": "[49]", "value": 2.35, "unit": "µM"}, {"measurement": "TGI", "setting": "[49]", "value": 6.37, "unit": "µM"}, {"measurement": "GI50", "setting": "[50]", "value": 0.772, "unit": "µM"}, {"measurement": "TGI", "setting": "[50]", "value": 3.96, "unit": "µM"}, {"measurement": "GI50", "setting": "[51]", "value": 1.86, "unit": "µM"}, {"measurement": "TGI", "setting": "[51]", "value": 5.95, "unit": "µM"}, {"measurement": "GI50", "setting": "[52]", "value": 0.928, "unit": "µM"}, {"measurement": "TGI", "setting": "[52]", "value": 2.9, "unit": "µM"}, {"measurement": "GI50", "setting": "[53]", "value": 0.248, "unit": "µM"}, {"measurement": "TGI", "setting": "[53]", "value": 1.99, "unit": "µM"}]}
